Results taken from article PMC12141164, “Phase-1 study of vamotinib (PF-114), a 3rd generation BCR::ABL1 tyrosine kinase-inhibitor, in chronic myeloid leukaemia” (Annals of Hematology, 2025).
“And” between values parts separate entries of the source, which are not always exact repeats. Identical values can stand only once.

System: BCR::ABL1 positive CML
Experiment: Phase-1 study: haematological, cytogenetic and molecular response
Assay type: in vivo, human
Description: Haematological response evaluations were done on the first day of each cycle of therapy; molecular response on the first day of cycles 1, 2, 4, 7, 10, 13 and then every three months; cytogenetic response – at screening and on the first days of cycles 4, 7, 13 and every three months thereafter, provided that there was no major molecular response.
Cytogenetic response was assessed by differential staining of chromosomes and if uninformative, by fluorescent in situ hybridization (FISH). Mutations in BCR::ABL1 were assessed by Sanger and next generation sequencing (NGS). Sanger sequencing was done at each center; NGS analyses were done in the laboratory of Prof. Susan Branford, University of Adelaide. Discordances were resolved as described in Table S2. Molecular response was assessed using the ratio of BCR::ABL1 to ABL1 measured according to the IS [9].

`Cc1ccc(C(=O)Nc2ccc(CN3CCN(C)CC3)c(C(F)(F)F)c2)cc1C#Cc1nnc2ccccn12` [vamotinib] was tested, and the CCyR (Advanced phase CML (N = 5)) was “none and 0/5”, the MCyR (Advanced phase CML (N = 5)) was “none and 0/5” and the MMR (Advanced phase CML (N = 5)) was 0/5. The “subjects with BCR::ABL1^T315I who responded” value (BCR::ABL1^T315I) was 5 of 16 subjects, the “CCyR achieved at treatment” value (Cohort 1 50 mg N=3) was 0 no. (%) and the “CCyR by 6 months” value (Cohort 1 50 mg N=3) was 0 no. (%). For the same compound, the “CCyR by 12 months” value (Cohort 1 50 mg N=3) was 0 no. (%), the “CHR achieved at treatment” value (Cohort 1 50 mg N=3) was 1 (50) no. (%) and the “CHR by the 3 months” value (Cohort 1 50 mg N=3) was 0 no. (%). For the same compound, the “CHR by the 6th months” value (Cohort 1 50 mg N=3) was 0 no. (%), the “CHR by the 12th months” value (Cohort 1 50 mg N=3) was 1 (50) no. (%) and the “MCyR achieved at treatment” value (Cohort 1 50 mg N=3) was 0 no. (%). The “MCyR by 6 months” value (Cohort 1 50 mg N=3) was 0 no. (%), the “MCyR by 12 months” value (Cohort 1 50 mg N=3) was 0 no. (%) and the “MMR achieved at treatment” value (Cohort 1 50 mg N=3) was 0 no. (%). For the same compound, the “MMR by 6 months” value (Cohort 1 50 mg N=3) was 0 no. (%), the “MMR by 12 months” value (Cohort 1 50 mg N=3) was 0 no. (%) and the “MMR by 24 months” value (Cohort 1 50 mg N=3) was 0 no. (%). The “Subjects with loss of CCyR” value (Cohort 1 50 mg N=3) was 0 no. (%), the “Subjects with loss of CHR” value (Cohort 1 50 mg N=3) was 0 no. (%) and the “Subjects with loss of MCyR” value (Cohort 1 50 mg N=3) was 0 no. (%). For the same compound, the “Subjects with loss of MMR” value (Cohort 1 50 mg N=3) was 0 no. (%), the “CCyR achieved at treatment” value (Cohort 2 100 mg N=3) was 1 (33) no. (%) and the “CCyR by 6 months” value (Cohort 2 100 mg N=3) was 0 no. (%). The “CCyR by 12 months” value (Cohort 2 100 mg N=3) was 0 no. (%), the “CHR achieved at treatment” value (Cohort 2 100 mg N=3) was 0 no. (%) and the “CHR by the 3 months” value (Cohort 2 100 mg N=3) was 0 no. (%). For the same compound, the “CHR by the 6th months” value (Cohort 2 100 mg N=3) was 0 no. (%), the “CHR by the 12th months” value (Cohort 2 100 mg N=3) was 0 no. (%) and the “MCyR by 6 months” value (Cohort 2 100 mg N=3) was 1 (33) no. (%). For the same compound, the “MCyR by 12 months” value (Cohort 2 100 mg N=3) was 1 (33) no. (%), the “MMR achieved at treatment” value (Cohort 2 100 mg N=3) was 1 (33) no. (%) and the “MMR by 6 months” value (Cohort 2 100 mg N=3) was 0 no. (%). For the same compound, the “MMR by 12 months” value (Cohort 2 100 mg N=3) was 0 no. (%), the “MMR by 24 months” value (Cohort 2 100 mg N=3) was 1 (33) no. (%) and the “Subjects with loss of CCyR” value (Cohort 2 100 mg N=3) was 0 no. (%). For the same compound, the “Subjects with loss of CHR” value (Cohort 2 100 mg N=3) was 0 no. (%), the “Subjects with loss of MCyR” value (Cohort 2 100 mg N=3) was 0 no. (%) and the “Subjects with loss of MMR” value (Cohort 2 100 mg N=3) was 0 no. (%). For the same compound, the “CCyR achieved at treatment” value (Cohort 3 200 mg N=11) was 3 (30) no. (%), the “CCyR by 6 months” value (Cohort 3 200 mg N=11) was 2 (20) no. (%) and the “CCyR by 12 months” value (Cohort 3 200 mg N=11) was 2 (20) no. (%). The “CHR achieved at treatment” value (Cohort 3 200 mg N=11) was 2 (40) no. (%), the “CHR by the 3 months” value (Cohort 3 200 mg N=11) was 2 (40) no. (%) and the “CHR by the 6th months” value (Cohort 3 200 mg N=11) was 2 (40) no. (%). The “CHR by the 12th months” value (Cohort 3 200 mg N=11) was 2 (40) no. (%), the “MCyR achieved at treatment” value (Cohort 3 200 mg N=11) was 4 (50) no. (%) and the “MCyR by 6 months” value (Cohort 3 200 mg N=11) was 3 (38) no. (%). The “MCyR by 12 months” value (Cohort 3 200 mg N=11) was 3 (38) no. (%), the “MMR achieved at treatment” value (Cohort 3 200 mg N=11) was 2 (18) no. (%) and the “MMR by 6 months” value (Cohort 3 200 mg N=11) was 1 (9) no. (%). For the same compound, the “MMR by 12 months” value (Cohort 3 200 mg N=11) was 1 (9) no. (%), the “MMR by 24 months” value (Cohort 3 200 mg N=11) was 2 (18) no. (%) and the “Subjects with loss of CCyR” value (Cohort 3 200 mg N=11) was 1 (33) no. (%). The “Subjects with loss of CHR” value (Cohort 3 200 mg N=11) was 2 (100) no. (%), the “Subjects with loss of MCyR” value (Cohort 3 200 mg N=11) was 1 (25) no. (%) and the “Subjects with loss of MMR” value (Cohort 3 200 mg N=11) was 0 no. (%). For the same compound, the “CCyR achieved at treatment” value (Cohort 4 400 mg N=12) was 1 (8) no. (%), the “CCyR by 6 months” value (Cohort 4 400 mg N=12) was 1 (8) no. (%) and the “CCyR by 12 months” value (Cohort 4 400 mg N=12) was 1 (8) no. (%). For the same compound, the “CHR achieved at treatment” value (Cohort 4 400 mg N=12) was 4 (57) no. (%), the “CHR by the 3 months” value (Cohort 4 400 mg N=12) was 2 (29) no. (%) and the “CHR by the 6th months” value (Cohort 4 400 mg N=12) was 2 (29) no. (%). The “CHR by the 12th months” value (Cohort 4 400 mg N=12) was 4 (57) no. (%), the “MCyR achieved at treatment” value (Cohort 4 400 mg N=12) was 2 (19) no. (%) and the “MCyR by 6 months” value (Cohort 4 400 mg N=12) was 2 (19) no. (%). The “MCyR by 12 months” value (Cohort 4 400 mg N=12) was 2 (19) no. (%), the “MMR achieved at treatment” value (Cohort 4 400 mg N=12) was 0 no. (%) and the “MMR by 6 months” value (Cohort 4 400 mg N=12) was 0 no. (%). The “MMR by 12 months” value (Cohort 4 400 mg N=12) was 0 no. (%), the “MMR by 24 months” value (Cohort 4 400 mg N=12) was 0 no. (%) and the “Subjects with loss of CCyR” value (Cohort 4 400 mg N=12) was 0 no. (%). For the same compound, the “Subjects with loss of CHR” value (Cohort 4 400 mg N=12) was 4 (100) no. (%), the “Subjects with loss of MCyR” value (Cohort 4 400 mg N=12) was 0 no. (%) and the “Subjects with loss of MMR” value (Cohort 4 400 mg N=12) was 0 no. (%). For the same compound, the “CCyR achieved at treatment” value (Cohort 5 500 mg N=3) was 0 no. (%), the “CCyR by 6 months” value (Cohort 5 500 mg N=3) was 0 no. (%) and the “CCyR by 12 months” value (Cohort 5 500 mg N=3) was 0 no. (%). The “CHR achieved at treatment” value (Cohort 5 500 mg N=3) was 0 no. (%), the “CHR by the 3 months” value (Cohort 5 500 mg N=3) was 0 no. (%) and the “CHR by the 6th months” value (Cohort 5 500 mg N=3) was 0 no. (%). For the same compound, the “CHR by the 12th months” value (Cohort 5 500 mg N=3) was 0 no. (%), the “MCyR achieved at treatment” value (Cohort 5 500 mg N=3) was 0 no. (%) and the “MCyR by 6 months” value (Cohort 5 500 mg N=3) was 0 no. (%). The “MCyR by 12 months” value (Cohort 5 500 mg N=3) was 0 no. (%), the “MMR achieved at treatment” value (Cohort 5 500 mg N=3) was 0 no. (%) and the “MMR by 6 months” value (Cohort 5 500 mg N=3) was 0 no. (%). The “MMR by 12 months” value (Cohort 5 500 mg N=3) was 0 no. (%), the “MMR by 24 months” value (Cohort 5 500 mg N=3) was 0 no. (%) and the “Subjects with loss of CCyR” value (Cohort 5 500 mg N=3) was 0 no. (%). The “Subjects with loss of CHR” value (Cohort 5 500 mg N=3) was 0 no. (%).
